16 compounds from patent publication US20020049223A1, “Quinoline and naphthyridine carboxylic acid antibacterials” (priority 1999, published 2002) can be followed below.

SMILES strings stand for the structures.

Holding throughout (assay): Assay B: in vitro antibacterial activity, broth microdilution MIC (NCCLS)
Format in all cases: cell-based
Background: In broth dilution the organism is exposed to a series of concentrations in liquid medium.

In assay [1] the test system is Enterococcus faecalis PIU 1967. Particulars: Table 2, Assay B, cation-adjusted Mueller Hinton broth, 35° C., 16 to 20 hr; code B = Enterococcus faecalis PIU 1967; unit assumed. In outline:
(§1)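 Growth inhibition read by eye after incubation at 35° C (16 to 20 hr; 20 to 24 hr for S. pneumoniae and H. influenzae). Medium: cation-adjusted Mueller Hinton broth, supplemented with 3% lysed horse blood or with 5 g/L yeast extract, 0.3 mmol/L hematin and 15 mg/L NAD, respectively.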

The subject of another assay is Escherichia coli JUHL. The following applies: Table 2, Assay B, cation-adjusted Mueller Hinton broth, 35° C., 16 to 20 hr; code D = Escherichia coli JUHL; unit assumed. In a few lines:
as §1

For assay [2], the system named is Haemophilus influenzae DILL AMP R. The following applies: Table 2, Assay B, Mueller Hinton broth with yeast extract, hematin and NAD, 20 to 24 hr; code E = Haemophilus influenzae DILL AMP R; unit assumed. In a few lines: as §1
Assay [3] concerns Staphylococcus aureus ATCC 6538P. Particulars: Table 2, Assay B, cation-adjusted Mueller Hinton broth, 35° C., 16 to 20 hr; code A = Staphylococcus aureus ATCC 6538P; unit assumed. In outline: as §1
For assay [4], the system named is Streptococcus pneumoniae ATCC 6303. The following applies: Table 2, Assay B, Mueller Hinton broth with 3% lysed horse blood, 20 to 24 hr; code F = Streptococcus pneumoniae ATCC 6303; unit assumed. In a few lines:
as §1

Compound `COc1c(-c2cc3c(s2)CCCC3(C)C)ccc2c(=O)c(C(=O)O)cn(C3CC3)c12` [Example 227, 1-cyclopropyl-7-(4,4-dimethyl-4,5,6,7-tetrahydro-1-benzothien-2-yl)-8-methoxy-4-oxo-1,4-dihydro-3-quinolinecarboxylic acid] returned an Antibacterial Activity (MIC's), B in assay [1] of 2 µg/mL. For the same compound, in the assay with Escherichia coli JUHL, the Antibacterial Activity (MIC's), D was above 64 µg/mL. In addition, the Antibacterial Activity (MIC's), E in assay [2] was 2 µg/mL. Moreover, in assay [3], the Antibacterial Activity (MIC's), A was 0.5 µg/mL. The Antibacterial Activity (MIC's), F in assay [4] stood at 8 µg/mL.

Turning to `COc1c(-c2cc3c(s2)C(N)CN(S(C)(=O)=O)C3)ccc2c(=O)c(C(=O)O)cn(C3CC3)c12` (centres unmarked) [Example 230, 7-(7-amino-5-(methylsulfonyl)-4,5,6,7-tetrahydrothieno[3,2-c]pyridin-2-yl)-1-cyclopropyl-8-methoxy-4-oxo-1,4-dihydro-3-quinolinecarboxylic acid], in assay [1], the Antibacterial Activity (MIC's), B is 1 µg/mL. This compound also registered an Antibacterial Activity (MIC's), D in the assay on Escherichia coli JUHL of 1 µg/mL. The Antibacterial Activity (MIC's), E in assay [2] is 0.25 µg/mL. The compound further yielded an Antibacterial Activity (MIC's), A in assay [3] of 0.125 µg/mL. The same compound gave an Antibacterial Activity (MIC's), F in assay [4] of 0.125 µg/mL.

The compound `COc1c(-c2sc3c(c2C)C(N)CCC3)ccc2c(=O)c(C(=O)O)cn(C3CC3)c12.Cl` (centres unmarked) [Example 232, 7-(4-amino-3-methyl-4,5,6,7-tetrahydro-1-benzothien-2-yl)-1-cyclopropyl-8-methoxy-4-oxo-1,4-dihydro-3-quinolinecarboxylic acid hydrochloride] gave an Antibacterial Activity (MIC's), B in assay [1] of 0.5 µg/mL. Also, the Antibacterial Activity (MIC's), D in the assay on Escherichia coli JUHL was found to be 0.25 µg/mL. In assay [2], this compound displayed an Antibacterial Activity (MIC's), E of 0.125 µg/mL. In assay [3], this compound yielded an Antibacterial Activity (MIC's), A of 0.06 µg/mL. The Antibacterial Activity (MIC's), F in assay [4] amounted to 0.125 µg/mL.

Regarding `COc1c(-c2cc3c(s2)CC(C)(C)CC3O)ccc2c(=O)c(C(=O)O)cn(C3CC3)c12` (centres unmarked) [Example 234, 1-cyclopropyl-7-(4-hydroxy-6,6-dimethyl-4,5,6,7-tetrahydro-1-benzothien-2-yl)-8-methoxy-4-oxo-1,4-dihydro-3-quinolinecarboxylic acid], in assay [1], the Antibacterial Activity (MIC's), B stood at 0.5 µg/mL. In the assay with Escherichia coli JUHL, this compound returned an Antibacterial Activity (MIC's), D of 2 µg/mL. The compound also showed an Antibacterial Activity (MIC's), E in assay [2] of 0.5 µg/mL. Further, the Antibacterial Activity (MIC's), A in assay [3] worked out at 0.03 µg/mL. This compound had an Antibacterial Activity (MIC's), F in assay [4] of 0.5 µg/mL.

`COc1c(-c2cc3c(s2)C(N)C(C)CC3)ccc2c(=O)c(C(=O)O)cn(C3CC3)c12.Cl` (centres unmarked) [Example 235, 7-(7-amino-6-methyl-4,5,6,7-tetrahydro-1-benzothien-2-yl)-1-cyclopropyl-8-methoxy-4-oxo-1,4-dihydro-3-quinolinecarboxylic acid hydrochloride] had an Antibacterial Activity (MIC's), B in assay [1] of 0.25 µg/mL. For the same compound, in the assay with Escherichia coli JUHL, the Antibacterial Activity (MIC's), D came to 0.25 µg/mL. In assay [2], this compound gave an Antibacterial Activity (MIC's), E of 0.06 µg/mL. Also, in assay [3], the Antibacterial Activity (MIC's), A was 0.015 µg/mL. In assay [4], this compound displayed an Antibacterial Activity (MIC's), F of 0.06 µg/mL.

Take `COc1c(-c2cc3c(s2)CC(C)(C)CC3)ccc2c(=O)c(C(=O)O)cn(C3CC3)c12` [Example 236, 1-cyclopropyl-7-(6,6-dimethyl-4,5,6,7-tetrahydro-1-benzothien-2-yl)-8-methoxy-4-oxo-1,4-dihydro-3-quinolinecarboxylic acid]: in assay [1], the Antibacterial Activity (MIC's), B was determined as 1 µg/mL. In the assay on Escherichia coli JUHL, this compound displayed an Antibacterial Activity (MIC's), D of 4 µg/mL. Also, the Antibacterial Activity (MIC's), E in assay [2] worked out at 0.5 µg/mL. The compound further yielded an Antibacterial Activity (MIC's), A in assay [3] of 0.125 µg/mL. Also, the Antibacterial Activity (MIC's), F in assay [4] is 4 µg/mL.

In assay [1], `COc1c(-c2cc3c(s2)C(N)C(F)CC3)ccc2c(=O)c(C(=O)O)cn(C3CC3)c12.Cl` (centres unmarked) [Example 237, 7-(7-amino-6-fluoro-4,5,6,7-tetrahydro-1-benzothien-2-yl)-1-cyclopropyl-8-methoxy-4-oxo-1,4-dihydro-3-quinolinecarboxylic acid hydrochloride] displayed an Antibacterial Activity (MIC's), B of 0.5 µg/mL. Further, the Antibacterial Activity (MIC's), D in the assay on Escherichia coli JUHL was 0.125 µg/mL. The compound also registered an Antibacterial Activity (MIC's), E in assay [2] of 0.03 µg/mL. The Antibacterial Activity (MIC's), A in assay [3] was 0.015 µg/mL. Besides, the Antibacterial Activity (MIC's), F in assay [4] is 0.125 µg/mL.

As for `COc1c(-c2cc3c(s2)CC(C)(C)CC3N)ccc2c(=O)c(C(=O)O)cn(C3CC3)c12.Cl` (centres unmarked) [Example 238, 7-(4-amino-6,6-dimethyl-4,5,6,7-tetrahydro-1-benzothien-2-yl)-1-cyclopropyl-8-methoxy-4-oxo-1,4-dihydro-3-quinolinecarboxylic acid hydrochloride], the Antibacterial Activity (MIC's), B in assay [1] is 0.5 µg/mL. The same compound displayed an Antibacterial Activity (MIC's), D in the assay with Escherichia coli JUHL of 0.25 µg/mL. This compound also displayed an Antibacterial Activity (MIC's), E in assay [2] of 0.125 µg/mL. In assay [3], the Antibacterial Activity (MIC's), A turned out to be 0.03 µg/mL. Moreover, the Antibacterial Activity (MIC's), F in assay [4] is 0.06 µg/mL.

`COc1c(-c2nc3c(s2)C(=O)CCC3)ccc2c(=O)c(C(=O)O)cn(C3CC3)c12` [Example 239, 1-cyclopropyl-8-methoxy-4-oxo-7-(7-oxo-4,5,6,7-tetrahydro-1,3-benzothiazol-2-yl)-1,4-dihydro-3-quinolinecarboxylic acid] had an Antibacterial Activity (MIC's), B in assay [1] of 32 µg/mL. This compound gave an Antibacterial Activity (MIC's), D in the assay on Escherichia coli JUHL of 32 µg/mL. In assay [2], this compound gave an Antibacterial Activity (MIC's), E of 4 µg/mL. Moreover, in assay [3], the Antibacterial Activity (MIC's), A worked out at 1 µg/mL. This compound had an Antibacterial Activity (MIC's), F in assay [4] above 64 µg/mL.

As to `COc1c(-c2cc3c(s2)C(O)C(F)CC3)ccc2c(=O)c(C(=O)O)cn(C3CC3)c12` (centres unmarked) [Example 240, 1-cyclopropyl-7-(6-fluoro-7-hydroxy-4,5,6,7-tetrahydro-1-benzothien-2-yl)-8-methoxy-4-oxo-1,4-dihydro-3-quinolinecarboxylic acid], the Antibacterial Activity (MIC's), B in assay [1] was 0.06 µg/mL. Further, the Antibacterial Activity (MIC's), D in the assay with Escherichia coli JUHL is 0.5 µg/mL. In assay [2], this compound gave an Antibacterial Activity (MIC's), E of 0.03 µg/mL. The same compound showed an Antibacterial Activity (MIC's), A in assay [3] of 0.004 µg/mL. The same compound came in with an Antibacterial Activity (MIC's), F in assay [4] of 1 µg/mL.

`COc1c(-c2cc3c(s2)C(O)C(C)(C)CC3)ccc2c(=O)c(C(=O)O)cn(C3CC3)c12` (centres unmarked) [Example 241, 1-cyclopropyl-7-(7-hydroxy-6,6-dimethyl-4,5,6,7-tetrahydro-1-benzothien-2-yl)-8-methoxy-4-oxo-1,4-dihydro-3-quinolinecarboxylic acid] yielded an Antibacterial Activity (MIC's), B in assay [1] of 0.25 µg/mL. For the same compound, the Antibacterial Activity (MIC's), D in the assay with Escherichia coli JUHL turned out to be 1 µg/mL. In assay [2], this compound returned an Antibacterial Activity (MIC's), E of 0.25 µg/mL. The compound also came in with an Antibacterial Activity (MIC's), A in assay [3] of 0.015 µg/mL. This compound displayed an Antibacterial Activity (MIC's), F in assay [4] of 1 µg/mL.

`COc1c(-c2cc3c(s2)CCCC3)ccc2c(=O)c(C(=O)O)cn(C3CC3)c12` [Example 243, 1-cyclopropyl-8-methoxy-4-oxo-7-(4,5,6,7-tetrahydro-1-benzothien-2-yl)-1,4-dihydro-3-quinolinecarboxylic acid] displayed an Antibacterial Activity (MIC's), B in assay [1] of 0.25 µg/mL. The Antibacterial Activity (MIC's), D with Escherichia coli JUHL came to 1 µg/mL. This compound registered an Antibacterial Activity (MIC's), E in assay [2] of 0.25 µg/mL. In assay [3], this compound yielded an Antibacterial Activity (MIC's), A of 0.015 µg/mL. For the same compound, the Antibacterial Activity (MIC's), F in assay [4] amounted to 1 µg/mL.

Take `COc1c(-c2cc3c(s2)C(N)C(F)(F)CC3)ccc2c(=O)c(C(=O)O)cn(C3CC3)c12.Cl` (centres unmarked) [Example 244, 7-(7-amino-6,6-difluoro-4,5,6,7-tetrahydro-1-benzothien-2-yl)-1-cyclopropyl-8-methoxy-4-oxo-1,4-dihydro-3-quinolinecarboxylic acid hydrochloride]: in assay [1], the Antibacterial Activity (MIC's), B was found to be 0.125 µg/mL. Also, the Antibacterial Activity (MIC's), D with Escherichia coli JUHL worked out at 1 µg/mL. This compound also yielded an Antibacterial Activity (MIC's), E in assay [2] of 0.06 µg/mL. The same compound displayed an Antibacterial Activity (MIC's), A in assay [3] of at most 0.004 µg/mL. In assay [4], this compound had an Antibacterial Activity (MIC's), F of 1 µg/mL.

Take `COc1c(-c2cc3c(s2)C(N)C(C)(C)CC3)ccc2c(=O)c(C(=O)O)cn(C3CC3)c12.Cl` (centres unmarked) [Example 245, 7-(7-amino-6,6-dimethyl-4,5,6,7-tetrahydro-1-benzothien-2-yl)-1-cyclopropyl-8-methoxy-4-oxo-1,4-dihydro-3-quinolinecarboxylic acid hydrochloride]: the Antibacterial Activity (MIC's), B in assay [1] was determined as 0.25 µg/mL. In the assay with Escherichia coli JUHL, this compound showed an Antibacterial Activity (MIC's), D of 0.25 µg/mL. For the same compound, the Antibacterial Activity (MIC's), E in assay [2] came out at 0.06 µg/mL. In assay [3], this compound showed an Antibacterial Activity (MIC's), A of 0.004 µg/mL. The compound further gave an Antibacterial Activity (MIC's), F in assay [4] of 0.125 µg/mL.

Compound `CNC1CCCc2cc(-c3c(F)cc4c(=O)c(C(=O)O)cn(C5CC5)c4c3OC)sc21.Cl` (centres unmarked) [Example 246, 1-cyclopropyl-6-fluoro-8-methoxy-7-(7-(methylamino)-4,5,6,7-tetrhydro-1-benzothien-2-yl)-4-oxo-1,4-dihydro-3-quinolinecarboxiylic acid hydrochloride] yielded an Antibacterial Activity (MIC's), B in assay [1] of 0.25 µg/mL. The compound also registered an Antibacterial Activity (MIC's), D with Escherichia coli JUHL of 0.25 µg/mL. The same compound showed an Antibacterial Activity (MIC's), E in assay [2] of 0.03 µg/mL. Moreover, the Antibacterial Activity (MIC's), A in assay [3] was found to be 0.004 µg/mL. This compound also registered an Antibacterial Activity (MIC's), F in assay [4] of 0.06 µg/mL.

`COc1c(-c2cc3c(s2)CC(=O)C3)ccc2c(=O)c(C(=O)O)cn(C3CC3)c12` [Example 247, 1-cyclopropyl-8-methoxy-4-oxo-7-(5-oxo-5,6-dihydro-4H-cyclopenta[b]thien-2-yl)-1,4-dihydro-3-quinolinecarboxylic acid] came in with an Antibacterial Activity (MIC's), B in assay [1] of 2 µg/mL. For the same compound, the Antibacterial Activity (MIC's), D with Escherichia coli JUHL is 4 µg/mL. The same compound had an Antibacterial Activity (MIC's), E in assay [2] of 0.25 µg/mL. In assay [3], this compound returned an Antibacterial Activity (MIC's), A of 0.125 µg/mL. The Antibacterial Activity (MIC's), F in assay [4] was found to be 0.25 µg/mL.
